Data taken from patent US8440653B2, “3-substituted-1,4-diazepan-2-one melanocortin-5 receptor antagonists” (Mimetica Pty Ltd, priority 2008, dated 2013).
Read-outs that look alike come from different tables or passages of the source.

Key:
human MC5R [1] = molecular target: T1, human MC5R (Homo sapiens, UniProt P33032); experiment: cAMP stimulation assay (agonism) in HEK 293 cells expressing human MC5R; format: cell-based; conditions: HEK 293 cells transiently expressing MC5R
T1 construct: host or cells: HEK 293, transient transfection
Procedure: (§1) HEK 293 cells transiently expressing the melanocortin MC5 receptor were suspended in stimulation buffer (Hanks buffered saline solution (HBSS), 0.1% bovine serum albumin, protease inhibitors and 0.5 mM 3-Isobutyl-1-methylxanthine) at 4×10^6 cells/mL. 5 μl of cells, plus the compounds/peptides as described below, were added to wells of a 384-well plate as soon as possible after resuspension.
To detect agonist activity, test compounds at varying concentrations were diluted in stimulation buffer at two times concentrate and 5 μl was added to wells containing cells. Positive control wells contained NDP-MSH or alpha-MSH alone (no compound) at two times concentrate
(§2) Basal level (of cAMP) control wells contained stimulation buffer only (no agonist or compounds). […] After incubation, 10 μl of lysis buffer (10% Tween 20, 1 M HEPES, 0.1% BSA, protease inhibitors, ddH2O) was added to all wells to be measured. […] 5 μl of diluted acceptor beads were added to each well to be measured, then the plate was incubated for 30 mins at room temperature, in the dark, with gentle shaking. […] Plates were read on an Envision plate reader (Perkin Elmer) after 1 hr and ˜16 hrs incubation. cAMP concentration in the cells was determined by the use of a ‘standard curve’ generated from the output of known cAMP concentrations as described below. […]

human MC4R = molecular target: T2, human MC4R (Homo sapiens, UniProt P32245); experiment: Human MC4R radioligand binding assay; conditions: [125I] NDP-MSH
T2 construct: expressed in transfected cells; host or cells: transfected mammalian cells, if the membranes were in-house
Procedure: (§3) Assays were performed in 96 well polypropylene plates. […] This was incubated for 1 hr at 37° C. […] Non-specific binding just under 5%.
(§4) Radioligand binding assays were carried out using commercial or in-house prepared hMC1R, hMC3R and hMC4R membranes and [^125I] NDP-MSH, as per hMC5R procedure in Example 46.
(§5) The homogenisation and ice incubation was repeated three times. The mixture was then centrifuged at 1260×g for 5 mins. […] This was centrifuged at 30,000×g for 90 mins at 4° C.

rhesus monkey MC5R = molecular target: T3, rhesus monkey MC5R (Macaca mulatta, UniProt A0A5F8AEA9); experiment: MC5R radioligand binding assay, other species: rhesus monkey MC5R membranes; conditions: membranes of cells expressing cloned receptor
T3 construct: expressed in transfected cells
Procedure: as §3
(§6) Representative compounds of the present invention were tested for binding to MC5R from other species, as in described in Example 48, the results are listed in Table 4.

human MC3R = molecular target: T4, human MC3R (Homo sapiens, UniProt P41968); experiment: Human MC3R radioligand binding assay; conditions: [125I] NDP-MSH
T4 construct: expressed in transfected cells; host or cells: transfected mammalian cells, if the membranes were in-house
Procedure: as §3, §4, §5

human MC1R = molecular target: T5, human MC1R (Homo sapiens, UniProt Q01726); experiment: Human MC1R radioligand binding assay; conditions: [125I] NDP-MSH
T5 construct: expressed in transfected cells; host or cells: transfected mammalian cells, if the membranes were in-house
Procedure: as §3, §4, §5

human MC5R [2] = molecular target: T1, human MC5R; experiment: cAMP assay (antagonism of alpha-MSH) in HEK 293 cells expressing human MC5R; format: cell-based; conditions: HEK 293 cells transiently expressing MC5R; 10^−6 M alpha-MSH
Procedure: as §1
To detect antagonist activity, test compounds at varying concentrations were diluted in stimulation buffer at four times concentrate and 2.5 μl was added to wells containing cells. 2.5 μl of a four times required concentration of NDP-MSH or alpha-MSH was added to all wells containing compounds. […]
as §2

human MC5R (hMC5R) = molecular target: T6, human MC5R (hMC5R) (Homo sapiens, UniProt P33032); experiment: Human MC5R radioligand binding assay ([125I] NDP-MSH displacement)
T6 construct: purchased Perkin Elmer RBXMC5M400UA
Procedure: Assessments of compound binding to human MC5R (hMC5R) by displacement of an ^125I-labeled NDP-MSH receptor ligand peptide were performed essentially as described in the data sheets produced by Perkin Elmer to accompany their frozen hMC5R membranes (Perkin Elmer catalog number RBXMC5M400UA).
Na^125I (0.5 mCi, 17.4 Ci/mg) was added to 50 μL sodium phosphate (50 mM, pH 7.4) in an eppendorf tube precoated with IODOGEN. After incubation for 10 mins the phosphate buffer containing the iodine was added to NDP-MSH (10 ul at 1 mg/mL) in a separate eppendorf tube. This was incubated for a further 10 mins. The iodinated NDP-MSH was purified by HPLC on a Zorbax SB 300 column using solvent A: 0.05% TFA and solvent B: 90% acetonitrile 0.045% TFA with a linear gradient, 0-67% B over 60 mins. The ^125I NDP-MSH eluted at 52 min after the unlabeled starting material (48 min) and was counted and stored in the freezer.
Incubation buffer: 25 mM HEPES-KOH (pH 7.0), 1.5 mM CaCl2, 1 mM MgSO4, 0.1 M NaCl, 1 mM 1,10-phenanthroline, and 1 Complete™ protease inhibitor tablet/100 mL (Roche, catalog number 1873580)
Perkin Elmer frozen hMC5 membranes: catalog number RBXMC5M400UA, 0.4 mL/vial; 400 microassays/vial. 0.78 mg/mL protein concentration
Vials of frozen membranes were thawed rapidly immediately before use, diluted with binding buffer and vortexed. Resuspended membranes were kept on ice until they were added to the wells of the plate.
as §3
Representative compounds of the present invention were tested for binding in the hMC5R assay as in Example 46, as listed in Table 3. The compounds were tested as their trifluoroacetate or hydrochloride salts, or as their free bases.

mouse MC5R = molecular target: T7, mouse MC5R (Mus musculus, UniProt P41149); experiment: MC5R radioligand binding assay, other species: mouse MC5R membranes; conditions: membranes from Euroscreen; read-out: mouse MC5R (membrane) IC50
T7 construct: purchased Euroscreen
Procedure: as §3, §6

sebum excretion = conditions: oral isotretinoin, after 8-12 weeks of therapy; cited from earlier work
[3] = Table 5, hMCR binding selectivity, read-out: human MC5R IC50
[4] = hMC5R membranes, [125I] NDP-MSH, tested as trifluoroacetate or hydrochloride salts or free bases, read-out: MC5R radioligand IC50

T6 sequence (P33032 whole entry): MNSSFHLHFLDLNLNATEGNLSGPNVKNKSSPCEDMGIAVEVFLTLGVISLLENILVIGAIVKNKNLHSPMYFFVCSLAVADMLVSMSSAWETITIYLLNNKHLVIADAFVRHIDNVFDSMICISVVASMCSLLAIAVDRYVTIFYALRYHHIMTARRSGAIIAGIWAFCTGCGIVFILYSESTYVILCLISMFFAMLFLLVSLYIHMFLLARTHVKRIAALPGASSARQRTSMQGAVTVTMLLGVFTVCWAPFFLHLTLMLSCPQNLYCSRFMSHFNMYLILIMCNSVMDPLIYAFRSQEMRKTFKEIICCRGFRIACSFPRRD
T1 sequence (P33032 whole entry): as above
T4 sequence (P41968 whole entry): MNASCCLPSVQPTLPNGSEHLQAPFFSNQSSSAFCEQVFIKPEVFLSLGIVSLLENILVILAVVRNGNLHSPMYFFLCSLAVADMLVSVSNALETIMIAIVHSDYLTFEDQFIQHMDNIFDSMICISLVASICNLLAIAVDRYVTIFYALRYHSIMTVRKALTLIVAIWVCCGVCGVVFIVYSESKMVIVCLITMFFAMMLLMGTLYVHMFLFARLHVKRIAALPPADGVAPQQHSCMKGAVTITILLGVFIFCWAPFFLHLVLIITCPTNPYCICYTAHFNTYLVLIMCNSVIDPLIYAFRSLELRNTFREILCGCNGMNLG
T2 sequence (P32245 whole entry): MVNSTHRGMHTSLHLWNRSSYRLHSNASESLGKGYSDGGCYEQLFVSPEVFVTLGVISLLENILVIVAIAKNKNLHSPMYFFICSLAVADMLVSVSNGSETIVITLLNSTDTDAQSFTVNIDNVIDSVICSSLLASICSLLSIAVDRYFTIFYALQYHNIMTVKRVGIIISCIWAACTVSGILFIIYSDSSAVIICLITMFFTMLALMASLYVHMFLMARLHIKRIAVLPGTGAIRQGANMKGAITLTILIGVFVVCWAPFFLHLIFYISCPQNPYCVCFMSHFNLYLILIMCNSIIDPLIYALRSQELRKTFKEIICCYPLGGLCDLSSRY
T5 sequence (Q01726 whole entry): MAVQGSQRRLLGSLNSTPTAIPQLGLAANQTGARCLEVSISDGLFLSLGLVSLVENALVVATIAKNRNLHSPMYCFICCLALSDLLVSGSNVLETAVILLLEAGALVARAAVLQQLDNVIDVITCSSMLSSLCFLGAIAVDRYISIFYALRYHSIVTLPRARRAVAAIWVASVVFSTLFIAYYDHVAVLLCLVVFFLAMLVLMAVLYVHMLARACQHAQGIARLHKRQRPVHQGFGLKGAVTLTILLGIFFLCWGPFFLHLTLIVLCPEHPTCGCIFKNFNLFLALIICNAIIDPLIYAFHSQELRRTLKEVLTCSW
T3 sequence (A0A5F8AEA9 1-325): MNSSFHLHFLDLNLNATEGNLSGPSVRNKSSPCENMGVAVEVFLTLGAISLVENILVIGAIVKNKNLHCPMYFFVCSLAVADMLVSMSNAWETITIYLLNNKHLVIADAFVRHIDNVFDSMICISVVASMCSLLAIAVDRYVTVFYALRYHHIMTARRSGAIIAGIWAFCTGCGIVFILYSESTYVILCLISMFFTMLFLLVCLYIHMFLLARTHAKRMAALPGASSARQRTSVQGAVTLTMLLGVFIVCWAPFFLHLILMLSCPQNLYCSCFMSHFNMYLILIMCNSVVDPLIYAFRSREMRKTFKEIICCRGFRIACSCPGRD
T7 sequence (P41149 whole entry): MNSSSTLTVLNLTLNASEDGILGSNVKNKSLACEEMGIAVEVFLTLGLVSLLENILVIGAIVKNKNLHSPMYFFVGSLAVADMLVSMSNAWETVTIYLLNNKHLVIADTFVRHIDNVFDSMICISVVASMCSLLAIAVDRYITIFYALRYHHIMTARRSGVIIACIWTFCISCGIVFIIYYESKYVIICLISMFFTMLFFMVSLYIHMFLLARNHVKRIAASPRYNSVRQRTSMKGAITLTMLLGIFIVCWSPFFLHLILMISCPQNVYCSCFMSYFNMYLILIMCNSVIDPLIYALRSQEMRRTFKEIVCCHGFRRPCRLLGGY

Row | EC50 (human MC5R [1]) | IC50 (human MC4R) | IC50 (rhesus monkey MC5R) | IC50 (human MC3R) | IC50 (human MC1R) | IC50 (human MC5R [2]) | IC50 (human MC5R (hMC5R); Table 4, membranes, read-out: human MC5R (membrane) IC50) | IC50 (human MC5R (hMC5R); [3]) | IC50 (human MC5R (hMC5R); [4]) | IC50 (mouse MC5R) | SMILES | reduction of sebum excretion (sebum excretion)
1 | > 10 µM | > 10 µM | 3.76 µM | 3.05 µM | > 10 µM | 6 µM | 30 nM | 30 nM | < 100 nM | 2300 nM | CC[C@H](CN1CC[C@@H](CNC(=O)c2ccc3cc(Cl)ccc3c2)N[C@@H](CCC(C)C)C1=O)c1ccccc1 [Compound 17, 6-chloro-N-(((3S,5S)-3-isopentyl-2-oxo-1-((S)-2-phenylbutyl)-1,4-diazepan-5-yl)methyl)-2-naphthamide] | –
2 | > 10 µM | > 10 µM | – | 4.96 µM | > 10 µM | 0.6 µM | – | 50 nM | < 100 nM | – | CC[C@H](CN1CC[C@@H](CNC(=O)c2ccc3cc(Cl)ccc3c2)N[C@@H](CCC(=O)N2CCCCC2)C1=O)c1ccccc1 [Compound 66, 6-chloro-N-(((3S,5S)-2-oxo-3-(3-oxo-3-(piperidin-1-yl)propyl)-1-((S)-2-phenylbutyl)-1,4-diazepan-5-yl)methyl)-2-naphthamide] | –
3 | – | – | – | – | – | – | – | – | < 10000 nM | – | CC[C@H](CN1CC[C@@H](CNC(=O)c2ccc(Cl)c(Cl)c2)N[C@@H](CCO)C1=O)c1ccccc1 [Compound 80, 3,4-dichloro-N-(((3S,5S)-3-(2-hydroxyethyl)-2-oxo-1-((S)-2-phenylbutyl)-1,4-diazepan-5-yl)methyl)benzamide] | –
4 | – | – | – | – | – | – | – | – | – | – | CC1=C(/C=C/C(C)=C/C=C/C(C)=C\C(=O)O)C(C)(C)CCC1 [isotretinoin, 13-cis-retinoic acid] | up to 90%
